# According to PMC4294780, “Sustained signalling by PTH modulates IP3 accumulation and IP3 receptors through cyclic AMP junctions” (Journal of Cell Science, 2015):
# Ends that are not written are not given here.
# Key:
# HEK-PR1 cells [1] = assay: Potentiation of carbachol-evoked Ca2+ signals by 8-Br-cAMP in HEK-PR1 cells; assay type: cell-based; details: n = 3; for Peak [Ca2+]c: 8-Br-cAMP 10 mM, then carbachol 20 µM; for pEC50 / Δ[Ca2+]c (maximal potentiated increase): carbachol 20 µM
# Description: (§1) Results are shown as mean±s.e.m.
# EPAC1 and EPAC2 = assay: Effect of EPAC antagonist ESI-09 on Ca2+ signals in HEK-PR1 cells; assay type: cell-based
# Experimental: (§2) HEK-PR1 cells (∼10^5 PTH1R/cell) were cultured as described previously ([Tovey et al., 2008]). Measurements of [Ca^2+]c in cell populations were performed as previously described ([Tovey et al., 2008]). Briefly, confluent cultures of HEK-PR1 grown in 96-well plates were loaded with fluo 4 by incubation with fluo 4AM (2 µM, 20°C) in HEPES-buffered saline (HBS). HBS had the following composition (in mM): NaCl 135, KCl 5.9, MgCl2 1.2, CaCl2 1.5, HEPES 11.6 and glucose 11.5, pH 7.3. After 1 h, loading medium was replaced with HBS, and after 45 min cells were used at 20°C for measurements of [Ca^2+]c. A fluorescence plate-reader equipped to allow automated fluid additions (FlexStation 3, Molecular Devices, Sunnyvale, CA, USA) was used to record fluorescence at intervals of 1.44 s (excitation at 485 nm; emission at >525 nm) ([Tovey et al., 2006]).
# PKA = assay: Effect of PKA inhibitor H89 on PTH(1-34)-evoked cAMP and potentiated Ca2+ signals; assay type: cell-based; details: H89 10 µM, 20 min; for intracellular cAMP in H89-treated cells relative to matched control cells: mean±s.e.m., n = 3, SEM
# Experimental: These assays were performed under conditions that replicate those used for measurements of [Ca^2+]c. HEK-PR1 cells were grown in 24-well plates until ∼90% confluent, [^3H]adenine (2 µCi per well) was then added to the culture medium. After 2 h at 37°C in 5% CO2, the medium was removed, cells were washed with HBS, and used for experiments in HBS at 20°C. Because many cells extrude cAMP into the extracellular medium ([Copsel et al., 2011]), reactions were terminated by first removing the medium and then adding ice-cold trichloroacetic acid (5% v/v, 1 ml). After 30 min on ice, [^3H]cAMP was separated from other ^3H-adenine nucleotides by sequential column chromatography on Dowex cation exchange resin and alumina as previously described ([Pantazaka et al., 2013]). The activity of the eluates was determined by liquid scintillation counting and amounts of [^3H]cAMP are expressed as percentages of the sum of the activities recovered in the [^3H]cAMP, [^3H]ADP and [^3H]ATP fractions.
# adenylyl cyclase = assay: Potentiation of carbachol-evoked Ca2+ signals by NKH477 in HEK-PR1 cells; assay type: cell-based; details: n = 3; for Peak [Ca2+]c: NKH477 200 µM, then carbachol 20 µM; for pEC50 / Δ[Ca2+]c (maximal potentiated increase): carbachol 20 µM
# Description: as §1
# PTH1R [2] = target: T1, PTH1R (Homo sapiens, UniProt Q03431); assay: Potentiation of carbachol-evoked Ca2+ signals by PTH analogues (fluo 4, HEK-PR1 cell populations); assay type: cell-based; details: then carbachol 20 µM in Ca2+-free HBS, n = 3, read-out: peak [Ca2+]c pEC50 (converted)
# T1 construct: expressed in transfected cells
# T1 sequence (Q03431 27-593): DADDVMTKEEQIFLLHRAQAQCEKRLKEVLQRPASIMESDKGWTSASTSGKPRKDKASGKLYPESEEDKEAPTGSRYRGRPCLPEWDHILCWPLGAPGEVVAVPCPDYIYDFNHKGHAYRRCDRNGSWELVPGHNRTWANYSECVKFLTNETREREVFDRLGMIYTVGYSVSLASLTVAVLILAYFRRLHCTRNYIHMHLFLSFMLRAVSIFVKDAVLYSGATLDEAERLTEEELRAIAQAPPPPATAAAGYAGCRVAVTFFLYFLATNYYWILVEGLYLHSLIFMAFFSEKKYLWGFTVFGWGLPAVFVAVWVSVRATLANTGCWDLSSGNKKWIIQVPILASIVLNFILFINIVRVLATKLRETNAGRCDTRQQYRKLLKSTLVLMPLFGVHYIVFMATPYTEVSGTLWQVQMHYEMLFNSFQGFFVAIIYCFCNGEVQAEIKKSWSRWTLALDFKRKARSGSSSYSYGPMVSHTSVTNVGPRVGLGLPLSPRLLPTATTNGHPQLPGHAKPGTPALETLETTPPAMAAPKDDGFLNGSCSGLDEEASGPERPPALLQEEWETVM
# Experimental: Briefly, confluent cultures of HEK-PR1 grown in 96-well plates were loaded with fluo 4 by incubation with fluo 4AM (2 µM, 20°C) in HEPES-buffered saline (HBS). […] After 1 h, loading medium was replaced with HBS, and after 45 min cells were used at 20°C for measurements of [Ca^2+]c.
# Concentration–effect relationships were fitted to Hill equations using Prism version 5 (GraphPad, San Diego, CA, USA). Results are shown as mean±s.e.m. […] All statistical comparisons are therefore between experiments performed in parallel and analysed using paired Student's t-tests.
# PTH1R [3] = target: T1, PTH1R; assay: Intracellular cAMP accumulation ([3H]adenine labelling) in HEK-PR1 cells; assay type: cell-based; details: n = 3, read-out: cAMP pEC50 (converted)
# Experimental: These assays were performed under conditions that replicate those used for measurements of [Ca^2+]c. HEK-PR1 cells were grown in 24-well plates until ∼90% confluent, [^3H]adenine (2 µCi per well) was then added to the culture medium. After 2 h at 37°C in 5% CO2, the medium was removed, cells were washed with HBS, and used for experiments in HBS at 20°C. […] The activity of the eluates was determined by liquid scintillation counting and amounts of [^3H]cAMP are expressed as percentages of the sum of the activities recovered in the [^3H]cAMP, [^3H]ADP and [^3H]ATP fractions.
# HEK-PR1 cells [4] = assay: Cytosolic IP3 measured with FRET sensor in single HEK-PR1 cells; assay type: cell-based; details: carbachol 1 mM; mean±s.e.m., n = 17 coverslips; SEM
# Description: A FRET sensor based on the IP3-binding core of IP3R1 ([Tovey and Taylor, 2013]) was used to measure cytosolic concentrations of IP3 in single HEK-PR1 cells under conditions similar to those used for measurements of [Ca^2+]c. The plasmid and properties of the sensor were as described previously ([Tovey and Taylor, 2013]). The sensor comprises the IP3-binding core attached through short linkers to enhanced cyan fluorescent protein (CFP) at its N-terminus and enhanced yellow fluorescent protein (YFP) at its C-terminus (see inset to Fig. 3A). IP3 binding causes a decrease in FRET. […] An Olympus IX71 inverted fluorescence microscope with a 40× objective and a 440 nm/520 nm dual band-pass dichroic mirror was used to record fluorescence from widefield images after excitation at 440 nm (to excite CFP). A Luca EMCCD camera (Andor Technology, Belfast, UK) was used to collect emitted fluorescence simultaneously at 1-s intervals from YFP (520–550 nm) and CFP (455–485 nm) using a Cairn Optosplit 2 image-splitter fitted with a 495-nm dichroic mirror. After correction for background fluorescence (determined from cytosolic areas of non-transfected cells), FRET ratios are presented as the ratio of CFP emission to YFP emission, so that the ratio increases (decreased FRET) after IP3 binding.
# PTH1R [5] = details: Table S1, properties from the literature; ref Cupp et al., 2013 and others listed in Table S1; cited from earlier work
# PTH1R [6] = tested on: PTH1R; design: method as in 2 sources, one per row (each row's own in cited_ref): ref Cupp et al., 2013 and others listed in Table S1 ||| ref supplementary material Table S1; details: Table S1, properties from the literature; ref Cupp et al., 2013 and others listed in Table S1; cited from earlier work
# PTH1R [7] = target: T1, PTH1R; assay: Ca2+ signals directly evoked by PTH analogues alone in HEK-PR1 cells; assay type: cell-based; details: highest concentrations of the analogue, no carbachol (Fig. 1F)
# Experimental: as §2
# [8] = PTH analogue 1 min, mean ± s.e.m., SEM
compound,measurement,setting,value
Nc1ncnc2c1nc(Br)n2[C@@H]1O[C@@H]2COP(=O)(O)O[C@H]2[C@H]1O [8-Br-cAMP],Peak [Ca2+]c,HEK-PR1 cells [1]; 5 min,386 ± 21 nM
same,Peak [Ca2+]c,HEK-PR1 cells [1]; 30 min,222 ± 24 nM
same,pEC50,HEK-PR1 cells [1]; 8-Br-cAMP 5 min,3.5 ± 0.1 /M
same,Δ[Ca2+]c (maximal potentiated increase),HEK-PR1 cells [1]; 8-Br-cAMP 5 min,207 ± 7 nM
same,pEC50,HEK-PR1 cells [1]; 8-Br-cAMP 30 min,3.7 ± 0.1 /M
same,Δ[Ca2+]c (maximal potentiated increase),HEK-PR1 cells [1]; 8-Br-cAMP 30 min,113 ± 5 nM
"CC(C)(C)c1cc(C(=O)C(C#N)=NNc2cccc(Cl)c2)no1 [ESI-09, 3-[5-(tert-butyl)isoxazol-3-yl]-2-[2-(3-chlorophenyl)hydrazono]-3-oxopropanenitril]",effect on Ca2+ signals evoked by carbachol alone,"EPAC1 and EPAC2; ESI-09 10 µM, 5 min",no significant effect
same,effect on concentration-dependent potentiation by PTH(1-34) of carbachol-evoked Ca2+ signals,"EPAC1 and EPAC2; ESI-09 10 µM, 5 min",no significant effect
same,effect on small Ca2+ signals directly evoked by high concentrations of PTH(1-34),"EPAC1 and EPAC2; ESI-09 10 µM, 5 min",no significant effect
same,effect on potentiation of carbachol-evoked Ca2+ signals by 8-Br-cAMP,"EPAC1 and EPAC2; ESI-09 10 µM, added 5 min before 8-Br-cAMP",unaffected
same,effect on carbachol-evoked Ca2+ release,EPAC1 and EPAC2; higher concentrations of ESI-09 (50 µM) or more prolonged treatments (15 min),directly inhibited carbachol-evoked Ca^2+ release
"Cl.Cl.O=S(=O)(NCCNCC=Cc1ccc(Br)cc1)c1cccc2cnccc12 [H89, N-[2-[[3-(4-bromophenyl)-2-propenyl]amino]ethyl]-5-isoquinolinesulfonamide dihydrochloride]","effect of PKA inhibition on acute and sustained effects of PTH(1-34), NKH477 or 8-Br-cAMP on carbachol-evoked Ca2+ signals",PKA,no effect
same,intracellular cAMP in H89-treated cells relative to matched control cells,PKA; 3 µM PTH(1-34) for 1 min,95±0.1%
same,intracellular cAMP in H89-treated cells relative to matched control cells,PKA; 3 µM PTH(1-34) for 60 min,98±0.2%
"C=C[C@@]1(C)CC(=O)[C@]2(O)[C@@]3(C)[C@@H](O)CCC(C)(C)[C@@H]3C(OC(=O)CCN(C)C)[C@H](OC(C)=O)[C@@]2(C)O1.Cl (stereo partly drawn) [NKH477, N,N-dimethyl-(3R,4aR,5S,6aS,10S,10aR,10bS)-5-(acetyloxy)-3-ethenyldodecahydro-10,10b-dihydroxy-3,4a,7,7,10a-pentamethyl-1-oxo-1H-naphtho[2,1-b]pyran-6-yl ester β-alanine hydrochloride]",Peak [Ca2+]c,adenylyl cyclase; 2 min,331 ± 20 nM
same,Peak [Ca2+]c,adenylyl cyclase; 30 min,256 ± 12 nM
same,pEC50,adenylyl cyclase; NKH477 2 min,5.0 ± 0.3 /M
same,Δ[Ca2+]c (maximal potentiated increase),adenylyl cyclase; NKH477 2 min,257 ± 3 nM
same,pEC50,adenylyl cyclase; NKH477 5 min,5.0 ± 0.1 /M
same,Δ[Ca2+]c (maximal potentiated increase),adenylyl cyclase; NKH477 5 min,225 ± 9 nM
same,pEC50,adenylyl cyclase; NKH477 15 min,5.0 ± 0.1 /M
same,Δ[Ca2+]c (maximal potentiated increase),adenylyl cyclase; NKH477 15 min,155 ± 10 nM
same,pEC50,adenylyl cyclase; NKH477 30 min,6.0 ± 0.1 /M
same,Δ[Ca2+]c (maximal potentiated increase),adenylyl cyclase; NKH477 30 min,124 ± 24 nM
CC[C@H](C)[C@H](NC(=O)[C@H](CCC(=O)O)NC(=O)[C@H](CO)NC(=O)[C@@H](NC(=O)[C@@H](N)Cc1ccc(O)cc1)C(C)C)C(=O)N[C@@H](CCC(N)=O)C(=O)N[C@@H](CC(C)C)C(=O)N[C@@H](CCSC)C(=O)N[C@@H](Cc1c[nH]cn1)C(=O)N[C@@H](CC(N)=O)C(=O)N[C@@H](CC(C)C)C(=O)NCC(=O)N[C@@H](CCCCN)C(=O)N[C@@H](Cc1c[nH]cn1)C(=O)N[C@@H](CC(C)C)C(=O)N[C@@H](CC(N)=O)C(=O)N[C@@H](CO)C(=O)N[C@@H](CCSC)C(=O)N[C@@H](CCC(=O)O)C(=O)N[C@@H](CCCNC(=N)N)C(=O)N[C@H](C(=O)N[C@@H](CCC(=O)O)C(=O)N[C@@H](Cc1c[nH]c2ccccc12)C(=O)N[C@@H](CC(C)C)C(=O)N[C@@H](CCCNC(=N)N)C(=O)N[C@@H](CCCCN)C(=O)N[C@@H](CCCCN)C(=O)N[C@@H](CC(C)C)C(=O)N[C@@H](CCC(N)=O)C(=O)N[C@@H](CC(=O)O)C(=O)N[C@H](C(=O)N[C@@H](Cc1c[nH]cn1)C(=O)N[C@@H](CC(N)=O)C(=O)N[C@@H](Cc1ccccc1)C(=O)O)C(C)C)C(C)C [Tyr1PTH(1-34)],EC50,PTH1R [2]; [8],200 nM
same,EC50,PTH1R [2]; PTH analogue 30 min,39.8 nM
same,EC50,PTH1R [3]; PTH analogue 1 min,794 nM
same,EC50,PTH1R [3]; PTH analogue 30 min,200 nM
"C[N+](C)(C)CCOC(N)=O [carbachol, Carbamylcholine chloride]",transfected cells responding with discernible FRET changes,HEK-PR1 cells [4],52±2%
"PTH(3-34): PTH analogue not used in this study, included for comparison with earlier work (SEIQLMHNLGKHLNSMERVEWLRKKLQDVHNF; Parathyroid hormone; UniProt P01270 34-65, looked up, fragment)",Gq (PLC),PTH1R [5],Inactive
same,Signalling to AC from internalized PTH1R,PTH1R [6],No
"SVSEIQLMHNLGKHLNSMERVEWLRKKLQDV [PTH(1-31), analogue of PTH that stimulates adenylyl cyclase]",direct Ca2+ signal evoked by the analogue alone,PTH1R [7],directly evoked small Ca^2+ signals
same,Signalling to AC from internalized PTH1R,PTH1R [6],Yes
VSEIQLMHNLGKHLNSMERVEWLRKKLQDVHNFVALG [PTH(2-38)],EC50,PTH1R [2]; [8],126 nM
same,EC50,PTH1R [2]; PTH analogue 30 min,50.1 nM
same,EC50,PTH1R [3]; PTH analogue 1 min,316 nM
same,EC50,PTH1R [3]; PTH analogue 30 min,63.1 nM
